Assay results published in ChEMBL document CHEMBL5649169 (ChemMedChem, 2018).

Experiments:
[1] = molecular target: Ephrin type-A receptor 1 (Homo sapiens, UniProt P21709); experiment: Inhibition of Nano Luc-fused full length C-terminal EPHA1 (unknown origin) expressed in HEK293T cells using NanoGlo as substrate incubated for 2 hrs in presence of tracer by NanoBRET assay; format: cell-based
[2] = molecular target: Ephrin type-A receptor 5 (Homo sapiens, UniProt P54756); further: assay method not described here
[3] = molecular target: Double-stranded RNA-specific adenosine deaminase (Homo sapiens) (UniProt P55265); further: assay method not described here
[4] = molecular target: Neuroblast differentiation-associated protein AHNAK (Homo sapiens) (UniProt Q09666); further: assay method not described here
[5] = molecular target: Dolichyl pyrophosphate Glc1Man9GlcNAc2 alpha-1,3-glucosyltransferase (Homo sapiens) (UniProt Q9BVK2); further: assay method not described here
[6] = molecular target: AP-2 complex subunit sigma (Homo sapiens) (UniProt P53680); further: assay method not described here
[7] = molecular target: V-type proton ATPase subunit G 1 (Homo sapiens) (UniProt O75348); further: assay method not described here
[8] = molecular target: Serine/threonine-protein kinase MRCK alpha (Homo sapiens) (UniProt Q5VT25); further: assay method not described here
[9] = molecular target: Dipeptidyl peptidase 2 (Homo sapiens) (UniProt Q9UHL4); further: assay method not described here
[10] = molecular target: Elongation factor 1-delta (Homo sapiens) (UniProt P29692); further: assay method not described here
[11] = molecular target: Band 4.1-like protein 2 (Homo sapiens) (UniProt O43491); further: assay method not described here
[12] = molecular target: Rab GDP dissociation inhibitor beta (Homo sapiens) (UniProt P50395); further: assay method not described here
[13] = molecular target: Growth factor receptor-bound protein 2 (Homo sapiens) (UniProt P62993); further: assay method not described here
[14] = molecular target: Glutathione S-transferase omega-1 (Homo sapiens) (UniProt P78417); further: assay method not described here
[15] = molecular target: Heat shock 70 kDa protein 1A/1B (Homo sapiens) (UniProt P0DMV8+P0DMV9); further: assay method not described here
[16] = molecular target: Heat shock protein 105 kDa (Homo sapiens) (UniProt Q92598); further: assay method not described here
[17] = molecular target: Leucine--tRNA ligase, cytoplasmic (Homo sapiens) (UniProt Q9P2J5); further: assay method not described here
[18] = molecular target: Lipopolysaccharide-responsive and beige-like anchor protein (Homo sapiens) (UniProt P50851); further: assay method not described here
[19] = molecular target: Dual specificity mitogen-activated protein kinase kinase 2 (Homo sapiens) (UniProt P36507); further: assay method not described here
[20] = molecular target: Dual specificity mitogen-activated protein kinase kinase 3 (Homo sapiens) (UniProt P46734); further: assay method not described here
[21] = molecular target: Mitogen-activated protein kinase kinase kinase 11 (Homo sapiens) (UniProt Q16584); further: assay method not described here
[22] = molecular target: MAP kinase-activated protein kinase 5 (Homo sapiens) (UniProt Q8IW41); further: assay method not described here
[23] = molecular target: Mitochondrial carrier homolog 2 (Homo sapiens) (UniProt Q9Y6C9); further: assay method not described here
[24] = molecular target: Nck-associated protein 1-like (Homo sapiens) (UniProt P55160); further: assay method not described here
[25] = molecular target: Nucleolar and coiled-body phosphoprotein 1 (Homo sapiens) (UniProt Q14978); further: assay method not described here
[26] = molecular target: Serine/threonine-protein kinase PAK 2 (Homo sapiens) (UniProt Q13177); further: assay method not described here
[27] = molecular target: Profilin-1 (Homo sapiens) (UniProt P07737); further: assay method not described here
[28] = molecular target: Membrane-associated tyrosine- and threonine-specific cdc2-inhibitory kinase (Homo sapiens) (UniProt Q99640); further: assay method not described here
[29] = molecular target: Peroxiredoxin-2 (Homo sapiens) (UniProt P32119); further: assay method not described here
[30] = molecular target: cGMP-dependent protein kinase 1 (Homo sapiens) (UniProt Q13976); further: assay method not described here
[31] = molecular target: Proteasome activator complex subunit 1 (Homo sapiens) (UniProt Q06323); further: assay method not described here
[32] = molecular target: Prothymosin alpha (Homo sapiens) (UniProt P06454); further: assay method not described here
[33] = species: Homo sapiens; further: assay method not described here
[34] = molecular target: ATP-dependent DNA helicase Q1 (Homo sapiens) (UniProt P46063); further: assay method not described here
[35] = molecular target: Rho-associated protein kinase 1 (Homo sapiens) (UniProt Q13464); further: assay method not described here
[36] = molecular target: Large ribosomal subunit protein uL16 (Homo sapiens) (UniProt P27635); further: assay method not described here
[37] = molecular target: Large ribosomal subunit protein uL29 (Homo sapiens) (UniProt P42766); further: assay method not described here
[38] = molecular target: Small ribosomal subunit protein eS24 (Homo sapiens) (UniProt P62847); further: assay method not described here
[39] = molecular target: Small ribosomal subunit protein eS7 (Homo sapiens) (UniProt P62081); further: assay method not described here
[40] = molecular target: Splicing factor 3B subunit 3 (Homo sapiens) (UniProt Q15393); further: assay method not described here
[41] = molecular target: Mitochondrial 2-oxoglutarate/malate carrier protein (Homo sapiens) (UniProt Q02978); further: assay method not described here
[42] = molecular target: Metal cation symporter ZIP14 (Homo sapiens) (UniProt Q15043); further: assay method not described here
[43] = molecular target: Transportin-1 (Homo sapiens) (UniProt Q92973); further: assay method not described here
[44] = molecular target: TELO2-interacting protein 1 homolog (Homo sapiens) (UniProt O43156); further: assay method not described here
[45] = molecular target: Tubulin beta-5 chain (Homo sapiens) (UniProt P07437); further: assay method not described here
Tubulin beta-5 chain (Homo sapiens), sequence (P07437 whole entry): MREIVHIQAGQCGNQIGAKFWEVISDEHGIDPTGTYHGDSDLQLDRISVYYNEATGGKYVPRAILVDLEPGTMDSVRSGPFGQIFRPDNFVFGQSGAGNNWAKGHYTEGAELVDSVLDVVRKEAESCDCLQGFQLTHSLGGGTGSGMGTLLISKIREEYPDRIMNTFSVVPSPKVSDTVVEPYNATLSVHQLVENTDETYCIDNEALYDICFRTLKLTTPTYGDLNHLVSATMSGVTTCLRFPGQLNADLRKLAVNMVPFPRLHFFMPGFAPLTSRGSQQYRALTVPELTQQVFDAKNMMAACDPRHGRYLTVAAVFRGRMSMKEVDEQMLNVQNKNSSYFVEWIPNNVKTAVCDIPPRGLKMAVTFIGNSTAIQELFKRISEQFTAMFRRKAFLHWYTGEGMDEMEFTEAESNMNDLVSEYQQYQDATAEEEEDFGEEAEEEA

Metal cation symporter ZIP14 (Homo sapiens), sequence (Q15043 whole entry): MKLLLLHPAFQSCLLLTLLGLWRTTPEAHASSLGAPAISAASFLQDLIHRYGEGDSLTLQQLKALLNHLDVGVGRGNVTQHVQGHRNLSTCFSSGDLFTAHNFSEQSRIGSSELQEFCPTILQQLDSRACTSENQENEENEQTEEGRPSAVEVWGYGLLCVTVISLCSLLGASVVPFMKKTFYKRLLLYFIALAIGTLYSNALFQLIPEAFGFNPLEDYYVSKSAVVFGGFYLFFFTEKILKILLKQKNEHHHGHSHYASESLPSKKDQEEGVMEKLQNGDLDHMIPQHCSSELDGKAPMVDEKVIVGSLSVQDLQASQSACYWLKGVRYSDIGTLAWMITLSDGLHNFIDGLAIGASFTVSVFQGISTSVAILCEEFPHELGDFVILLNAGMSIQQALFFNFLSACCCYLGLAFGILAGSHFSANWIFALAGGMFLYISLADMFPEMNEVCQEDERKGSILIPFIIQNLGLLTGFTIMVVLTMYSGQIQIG
Band 4.1-like protein 2 (Homo sapiens), sequence (O43491 whole entry): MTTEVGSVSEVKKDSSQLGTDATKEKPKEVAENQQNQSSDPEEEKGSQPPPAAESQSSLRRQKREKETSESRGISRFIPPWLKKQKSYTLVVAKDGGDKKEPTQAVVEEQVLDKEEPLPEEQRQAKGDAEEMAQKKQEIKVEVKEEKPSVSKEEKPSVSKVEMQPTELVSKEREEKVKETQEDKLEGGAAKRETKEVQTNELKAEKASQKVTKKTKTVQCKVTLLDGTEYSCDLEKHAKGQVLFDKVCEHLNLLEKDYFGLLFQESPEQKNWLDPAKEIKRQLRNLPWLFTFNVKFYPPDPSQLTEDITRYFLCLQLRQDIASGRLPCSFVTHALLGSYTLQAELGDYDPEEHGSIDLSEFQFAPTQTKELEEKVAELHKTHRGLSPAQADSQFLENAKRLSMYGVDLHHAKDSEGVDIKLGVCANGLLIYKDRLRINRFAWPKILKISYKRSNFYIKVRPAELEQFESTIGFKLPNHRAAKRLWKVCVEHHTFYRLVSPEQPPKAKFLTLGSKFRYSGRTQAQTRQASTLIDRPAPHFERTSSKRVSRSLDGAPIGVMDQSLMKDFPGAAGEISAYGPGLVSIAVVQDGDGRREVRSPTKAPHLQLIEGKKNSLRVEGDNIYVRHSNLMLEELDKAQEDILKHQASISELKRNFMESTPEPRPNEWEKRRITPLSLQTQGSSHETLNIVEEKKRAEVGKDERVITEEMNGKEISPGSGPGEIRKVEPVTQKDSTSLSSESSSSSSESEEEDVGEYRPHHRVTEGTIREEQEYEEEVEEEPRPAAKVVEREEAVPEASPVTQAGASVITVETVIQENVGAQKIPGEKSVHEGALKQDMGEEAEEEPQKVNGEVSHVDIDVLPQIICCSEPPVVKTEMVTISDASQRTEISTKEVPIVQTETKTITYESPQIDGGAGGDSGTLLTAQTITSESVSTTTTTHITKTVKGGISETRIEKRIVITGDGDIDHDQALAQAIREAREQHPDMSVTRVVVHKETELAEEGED
Profilin-1 (Homo sapiens), sequence (P07737 whole entry): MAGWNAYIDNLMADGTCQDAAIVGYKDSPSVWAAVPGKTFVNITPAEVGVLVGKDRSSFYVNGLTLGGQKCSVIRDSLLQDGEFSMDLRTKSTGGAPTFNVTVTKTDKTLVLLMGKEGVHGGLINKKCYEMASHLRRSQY
Dual specificity mitogen-activated protein kinase kinase 3 (Homo sapiens), sequence (P46734 whole entry): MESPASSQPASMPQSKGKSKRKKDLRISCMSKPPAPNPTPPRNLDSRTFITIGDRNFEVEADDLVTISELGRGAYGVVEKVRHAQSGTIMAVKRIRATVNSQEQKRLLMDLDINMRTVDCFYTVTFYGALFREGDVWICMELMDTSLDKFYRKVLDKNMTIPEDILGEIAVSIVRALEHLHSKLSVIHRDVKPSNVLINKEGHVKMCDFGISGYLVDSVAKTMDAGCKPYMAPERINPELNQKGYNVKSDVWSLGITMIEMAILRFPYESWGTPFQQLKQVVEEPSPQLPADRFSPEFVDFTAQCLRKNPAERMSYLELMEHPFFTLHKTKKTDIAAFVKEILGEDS
Prothymosin alpha (Homo sapiens), sequence (P06454 whole entry): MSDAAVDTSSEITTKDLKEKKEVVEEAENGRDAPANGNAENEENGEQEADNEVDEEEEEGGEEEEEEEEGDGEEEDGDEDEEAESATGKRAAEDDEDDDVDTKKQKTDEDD
ATP-dependent DNA helicase Q1 (Homo sapiens), sequence (P46063 whole entry): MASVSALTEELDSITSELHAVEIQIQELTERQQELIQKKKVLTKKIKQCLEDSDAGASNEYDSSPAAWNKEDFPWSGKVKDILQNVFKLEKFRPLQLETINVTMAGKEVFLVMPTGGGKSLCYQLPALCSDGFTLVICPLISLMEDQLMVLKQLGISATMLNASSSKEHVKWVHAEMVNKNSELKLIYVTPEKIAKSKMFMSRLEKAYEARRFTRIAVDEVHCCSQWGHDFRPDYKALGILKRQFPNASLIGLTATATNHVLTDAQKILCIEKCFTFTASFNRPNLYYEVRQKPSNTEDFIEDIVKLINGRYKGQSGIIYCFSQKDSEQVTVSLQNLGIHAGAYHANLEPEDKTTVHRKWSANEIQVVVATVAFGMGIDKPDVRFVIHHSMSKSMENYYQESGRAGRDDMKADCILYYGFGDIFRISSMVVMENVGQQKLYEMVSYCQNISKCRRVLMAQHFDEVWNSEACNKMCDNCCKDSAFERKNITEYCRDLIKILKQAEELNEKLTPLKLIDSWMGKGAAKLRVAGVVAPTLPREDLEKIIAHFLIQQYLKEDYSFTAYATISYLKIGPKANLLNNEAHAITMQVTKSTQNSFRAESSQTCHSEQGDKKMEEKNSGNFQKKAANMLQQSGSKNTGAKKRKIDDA
TELO2-interacting protein 1 homolog (Homo sapiens), sequence (O43156 whole entry): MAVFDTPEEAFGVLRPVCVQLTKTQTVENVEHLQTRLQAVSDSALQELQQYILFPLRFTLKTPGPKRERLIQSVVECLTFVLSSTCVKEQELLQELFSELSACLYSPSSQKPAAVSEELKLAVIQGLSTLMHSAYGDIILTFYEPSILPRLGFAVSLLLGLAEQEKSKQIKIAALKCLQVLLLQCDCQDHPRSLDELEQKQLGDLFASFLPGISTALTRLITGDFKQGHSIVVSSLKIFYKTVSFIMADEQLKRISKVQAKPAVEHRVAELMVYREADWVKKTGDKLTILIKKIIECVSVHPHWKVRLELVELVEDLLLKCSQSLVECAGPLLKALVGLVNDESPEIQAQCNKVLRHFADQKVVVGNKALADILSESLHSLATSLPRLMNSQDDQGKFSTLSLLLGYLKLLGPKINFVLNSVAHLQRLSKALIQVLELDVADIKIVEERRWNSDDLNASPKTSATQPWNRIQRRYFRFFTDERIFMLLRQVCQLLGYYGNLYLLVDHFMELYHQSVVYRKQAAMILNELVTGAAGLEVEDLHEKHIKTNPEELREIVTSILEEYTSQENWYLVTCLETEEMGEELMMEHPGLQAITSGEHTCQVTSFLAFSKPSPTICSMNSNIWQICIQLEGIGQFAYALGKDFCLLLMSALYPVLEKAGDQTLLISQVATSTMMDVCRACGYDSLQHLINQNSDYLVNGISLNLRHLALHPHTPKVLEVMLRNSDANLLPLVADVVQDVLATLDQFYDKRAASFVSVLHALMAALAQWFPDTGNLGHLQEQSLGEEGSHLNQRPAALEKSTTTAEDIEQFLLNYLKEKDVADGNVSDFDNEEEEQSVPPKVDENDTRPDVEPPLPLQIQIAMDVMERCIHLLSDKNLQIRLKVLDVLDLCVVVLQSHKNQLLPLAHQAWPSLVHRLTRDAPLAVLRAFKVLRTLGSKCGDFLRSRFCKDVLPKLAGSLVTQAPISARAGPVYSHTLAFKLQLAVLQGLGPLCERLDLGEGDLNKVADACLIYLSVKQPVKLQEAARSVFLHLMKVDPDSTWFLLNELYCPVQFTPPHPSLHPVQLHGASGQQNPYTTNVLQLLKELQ
Nucleolar and coiled-body phosphoprotein 1 (Homo sapiens), sequence (Q14978 whole entry): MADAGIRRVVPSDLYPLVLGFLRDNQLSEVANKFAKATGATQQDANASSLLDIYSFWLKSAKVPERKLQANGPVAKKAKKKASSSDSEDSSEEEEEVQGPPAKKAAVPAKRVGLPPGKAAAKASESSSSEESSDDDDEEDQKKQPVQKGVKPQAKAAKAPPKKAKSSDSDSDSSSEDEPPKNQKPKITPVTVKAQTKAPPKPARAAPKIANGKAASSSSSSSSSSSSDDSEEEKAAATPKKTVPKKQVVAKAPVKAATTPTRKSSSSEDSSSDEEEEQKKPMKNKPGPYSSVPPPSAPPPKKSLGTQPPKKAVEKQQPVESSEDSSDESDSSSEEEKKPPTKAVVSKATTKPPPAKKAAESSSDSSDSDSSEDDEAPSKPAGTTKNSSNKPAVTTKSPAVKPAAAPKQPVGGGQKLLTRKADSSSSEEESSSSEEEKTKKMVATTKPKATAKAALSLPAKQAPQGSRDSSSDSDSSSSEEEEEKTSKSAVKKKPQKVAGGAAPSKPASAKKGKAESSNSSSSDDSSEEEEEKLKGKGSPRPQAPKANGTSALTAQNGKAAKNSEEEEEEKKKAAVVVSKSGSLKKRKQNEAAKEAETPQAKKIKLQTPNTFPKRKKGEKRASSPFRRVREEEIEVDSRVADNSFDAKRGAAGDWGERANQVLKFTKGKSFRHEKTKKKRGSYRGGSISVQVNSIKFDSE

Cc1ccc(C(=O)Nc2cccc(C(F)(F)F)c2)cc1Nc1nc(-c2cccnc2)nc2c1cnn2C
IC50 [1]: 0.303 µM
ED50 [2]: 0.0633 µM
ED50 [3]: 0.00467 µM
ED50 [4]: 4.79 µM
ED50 [5]: 0.0377 µM
ED50 [6]: 0.678 µM
ED50 [7]: 501 µM
ED50 [8]: 111 µM
ED50 [9]: 0.00529 µM
ED50 [10]: 1.74 µM
ED50 [11]: 0.00541 µM
ED50 [12]: 74.6 µM
ED50 [13]: 0.0534 µM
ED50 [14]: 4.06 µM
ED50 [15]: 0.181 µM
ED50 [16]: 2.99 µM
ED50 [17]: 4.63 µM
ED50 [18]: 982 µM
ED50 [19]: 0.0127 µM
ED50 [20]: 0.00369 µM
ED50 [21]: 0.176 µM
ED50 [22]: 26.2 µM
ED50 [23]: 0.0279 µM
ED50 [24]: 41.5 µM
ED50 [25]: 0.0139 µM
ED50 [26]: 19.6 µM
ED50 [27]: 3.95 µM
ED50 [28]: 0.00995 µM
ED50 [29]: 8 µM
ED50 [30]: 0.00246 µM
ED50 [31]: 2570 µM
ED50 [32]: 11.1 µM
ED50 [33]: 4.25 µM
ED50 [34]: 0.0304 µM
ED50 [35]: 11 µM
ED50 [36]: 0.0767 µM
ED50 [37]: 64.9 µM
ED50 [38]: 0.357 µM
ED50 [39]: 2.24 µM
ED50 [40]: 13.9 µM
ED50 [41]: 0.0531 µM
ED50 [42]: 0.00337 µM
ED50 [43]: 3.81 µM
ED50 [44]: 4370 µM
ED50 [45]: 2.46 µM

Cc1ccc(C(=O)Nc2cccc(C(F)(F)F)c2)cc1Nc1nc(-c2cccnc2)nc2nn(C)cc12
IC50 [1]: 16.8 µM
ED50 [2]: 0.982 µM
ED50 [3]: 0.0077 µM
ED50 [4]: 0.11 µM
ED50 [5]: 72.9 µM
ED50 [6]: 0.0179 µM
ED50 [7]: 9.38 µM
ED50 [8]: 0.0291 µM
ED50 [9]: 0.504 µM
ED50 [10]: 0.0538 µM
ED50 [11]: 0.338 µM
ED50 [12]: 0.514 µM
ED50 [13]: 0.821 µM
ED50 [14]: 0.0945 µM
ED50 [15]: 1.61 µM
ED50 [16]: 8.65 µM
ED50 [17]: 0.265 µM
ED50 [18]: 0.167 µM
ED50 [19]: 2.14 µM
ED50 [20]: 2770 µM
ED50 [21]: 5.25 µM
ED50 [22]: 0.047 µM
ED50 [23]: 0.13 µM
ED50 [24]: 1530 µM
ED50 [25]: 0.178 µM
ED50 [26]: 42.5 µM
ED50 [27]: 3.98 µM
ED50 [28]: 0.0846 µM
ED50 [29]: 6.92 µM
ED50 [30]: 4.94 µM
ED50 [31]: 2.59 µM
ED50 [32]: 19.9 µM
ED50 [33]: 0.0418 µM
ED50 [34]: 12.9 µM
ED50 [35]: 2.23 µM
ED50 [36]: 5.79 µM
ED50 [37]: 0.00771 µM
ED50 [38]: 0.314 µM
ED50 [39]: 6.99 µM
ED50 [40]: 6.08 µM
ED50 [41]: 0.00199 µM
ED50 [42]: 3.03 µM
ED50 [43]: 0.464 µM
ED50 [44]: 0.00118 µM
ED50 [45]: 0.00905 µM
